PMC9495235, “New MraYAA Inhibitors with an Aminoribosyl Uridine Structure and an Oxadiazole” (Antibiotics, 2022)
Entries after “also recorded” stand apart in the source; their conditions may differ.

Legend:
[1] = molecular target: T1, MraY transferase purified from Aquifex aeolicus (MraYAA) (Aquifex aeolicus, UniProt O66465); assay: Inhibition of MraYAA transferase activity; type: biochemical; conditions: for IC50: read-out: IC50 against MraYAA
T1 construct: His; made in house
Protocol: The inhibitory activity of the synthesized compounds 12a–12j was evaluated on MraY transferase purified from Aquifex aeolicus (MraYAA) prepared as previously described by Chung et al.. Their activity (Table 4) was compared to the inhibitory activity of the N-triazole-containing inhibitor 13 (Figure 3) that we previously synthesized (Table 4). Commercially available tunicamycin from Streptomyces sp. was used as a positive control in the test.
The inhibitory activity of the synthesized compounds 1–5 was determined as described in reference except that compounds were tested at a final concentration of 10% DMSO. The compounds were evaluated on His-tagged MraY transferase purified from Aquifex aeolicus (MraYAA) prepared as previously described by Chung et al.. The assays were performed as previously described by Stachyra et al..

[2] = test system: Enterococcus faecium ATCC 19434; assay: Antibacterial activity (CMI); type: cell-based; conditions: Gram +
Protocol: (§1) The antibacterial activity of MraY inhibitors 12a–12h was also evaluated against several bacterial strains. Gram-negative (E. coli ATCC 8730, C. freundii ATCC8090 and P. aeruginosa ATCC 27853) and Gram-positive pathogenic bacterial strains (S. aureus ATCC 25923 and E. faecium ATCC 19434), including a methicillin-resistant strain (S. aureus MRSA ATCC 43300), were selected as a representative of pathogen bacterial diversity. Piperacillin and vancomycin were used as positive control in the tests.
(§2) Antibacterial activity was determined as previously described, but molecules were solubilized in 100% DMSO (cell culture grade) at 1 mg/mL concentration and 10-fold diluted in MHB just before utilization. The MHB-diluted solutions were then serially diluted in 5% DMSO-MHB, at final concentrations ranging from […] for compounds and 6.25 to 5% for DMSO.
(§3) Table S1. Antibacterial activity of compounds 12a-12i, and reference compounds.
(§4) final concentration tested

[3] = test system: Staphylococcus aureus MRSA ATCC 43300; assay: Antibacterial activity (CMI); type: cell-based; conditions: Gram +
Protocol: as §1, §2, §3, §4

[4] = test system: Escherichia coli ATCC 8730; assay: Antibacterial activity (CMI); type: cell-based; conditions: Gram -
Protocol: as §1, §2, §3, §4

[5] = test system: Citrobacter freundii ATCC 8090; assay: Antibacterial activity (CMI); type: cell-based; conditions: Gram -
Protocol: as §1, §2, §3, §4

[6] = test system: Staphylococcus aureus ATCC 25923; assay: Antibacterial activity (CMI); type: cell-based; conditions: Gram +
Protocol: as §1, §2, §3, §4

[7] = test system: Pseudomonas aeruginosa ATCC 27853; assay: Antibacterial activity (CMI); type: cell-based; conditions: Gram -
Protocol: as §1, §2, §3, §4

[8] = Solubility in 5%DMSO-water (culture media); type: physicochemical; conditions: at the highest final concentration tested
Protocol: as §2, §3, §4

[9] = final concentration of 10% DMSO, triplicate, repeated at least twice (tunicamycin tested twice)

T1 sequence (O66465 whole entry): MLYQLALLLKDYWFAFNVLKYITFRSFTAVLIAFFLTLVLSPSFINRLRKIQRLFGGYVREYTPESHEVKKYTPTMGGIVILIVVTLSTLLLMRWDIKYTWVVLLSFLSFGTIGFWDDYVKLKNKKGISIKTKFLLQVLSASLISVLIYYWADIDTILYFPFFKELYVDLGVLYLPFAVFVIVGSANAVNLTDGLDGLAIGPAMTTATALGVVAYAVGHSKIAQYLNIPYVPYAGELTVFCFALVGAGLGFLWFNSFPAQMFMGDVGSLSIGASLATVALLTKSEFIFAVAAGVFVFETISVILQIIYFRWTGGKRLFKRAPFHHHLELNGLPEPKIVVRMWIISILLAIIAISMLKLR

CCCCCCCCCCCCCCCc1nc(C[C@H](O[C@@H]2O[C@H](CN)[C@@H](O)[C@H]2O)[C@H]2O[C@@H](n3ccc(=O)[nH]c3=O)[C@H](O)[C@@H]2O)no1.O=C(O)C(F)(F)F [Compound 12b]
IC50 [1, 9]: 9.3 ± 0.2 µM
CMI [2]: > 50 µg/mL
CMI [3]: > 50 µg/mL
CMI [4]: > 50 µg/mL
CMI [5]: > 50 µg/mL
CMI [6]: > 50 µg/mL
CMI [7]: > 50 µg/mL

CCCCCCCC/C=C\CCCCCCCc1nc(C[C@H](O[C@@H]2O[C@H](CN)[C@@H](O)[C@H]2O)[C@H]2O[C@@H](n3ccc(=O)[nH]c3=O)[C@H](O)[C@@H]2O)no1.O=C(O)C(F)(F)F [Compound 12d]
solubility in 5%DMSO-water (culture media) [8]: insoluble
IC50 [1, 9]: 18.9 ± 0.9 µM
CMI [2]: > 50 µg/mL
CMI [3]: > 50 µg/mL
CMI [4]: > 50 µg/mL
CMI [5]: > 50 µg/mL
CMI [6]: > 50 µg/mL
CMI [7]: > 50 µg/mL

NC[C@H]1O[C@@H](O[C@@H](Cc2noc(CCCCCCCCCc3ccccc3)n2)[C@H]2O[C@@H](n3ccc(=O)[nH]c3=O)[C@H](O)[C@@H]2O)[C@H](O)[C@@H]1O.O=C(O)C(F)(F)F [Compound 12g]
IC50 [1, 9]: 5.8 ± 0.1 µM
CMI [2]: > 50 µg/mL
CMI [3]: > 50 µg/mL
CMI [4]: > 50 µg/mL
CMI [5]: > 50 µg/mL
CMI [6]: > 50 µg/mL
CMI [7]: > 50 µg/mL

CCCCCCCCCCc1cn(C[C@H](O[C@@H]2O[C@H](CN)[C@@H](O)[C@H]2O)[C@H]2O[C@@H](n3ccc(=O)[nH]c3=O)[C@H](O)[C@@H]2O)nn1 [Compound 13, reference compound]
IC50 [1, 9]: 1.1 µM

CCN1CCN(C(=O)N[C@@H](C(=O)N[C@@H]2C(=O)N3[C@@H]2SC(C)(C)[C@@H]3C(=O)O)c2ccccc2)C(=O)C1=O [Piperacillin, reference compound]
CMI [2]: 4 µg/mL
CMI [3]: > 128 µg/mL
CMI [4]: 4 µg/mL
CMI [5]: 4 µg/mL
CMI [6]: 4 µg/mL
CMI [7]: 8 µg/mL

CCCCCCCCCC(C(=O)OCC)c1nc(C[C@H](O[C@@H]2O[C@H](CN)[C@@H](O)[C@H]2O)[C@H]2O[C@@H](n3ccc(=O)[nH]c3=O)[C@H](O)[C@@H]2O)no1 (mixture of isomers) [Compound 12h]
IC50 [1, 9]: 27.5 ± 0.7 µM
CMI [2]: > 50 µg/mL
CMI [3]: > 50 µg/mL
CMI [4]: > 50 µg/mL
CMI [5]: > 50 µg/mL
CMI [6]: > 50 µg/mL
CMI [7]: > 50 µg/mL

CCCCCCCCCCCCCCCCCCc1nc(C[C@H](O[C@@H]2O[C@H](CN)[C@@H](O)[C@H]2O)[C@H]2O[C@@H](n3ccc(=O)[nH]c3=O)[C@H](O)[C@@H]2O)no1.O=C(O)C(F)(F)F [Compound 12c]
solubility in 5%DMSO-water (culture media) [8]: insoluble
IC50 [1, 9]: 15.8 ± 1 µM
CMI [2]: 50 µg/mL
CMI [3]: 50 µg/mL
CMI [4]: > 50 µg/mL
CMI [5]: > 50 µg/mL
CMI [6]: 50 µg/mL
CMI [7]: > 50 µg/mL

Tunicamycin [reference compound]
IC50 [1, 9]: 0.026 µM

CCCCCCCCCC(C(=O)O)c1nc(C[C@H](O[C@@H]2O[C@H](CN)[C@@H](O)[C@H]2O)[C@H]2O[C@@H](n3ccc(=O)[nH]c3=O)[C@H](O)[C@@H]2O)no1 (some centres unmarked) [Compound 12j]
IC50 [1, 9]: 2.9 ± 0.6 µM
activity relative to the parent ester ([1]; relative to parent ethyl ester (12h), MraYAA): almost tenfold more active

CCCCCCCCCCC(CCCCCCCCCC)c1nc(C[C@H](O[C@@H]2O[C@H](CN)[C@@H](O)[C@H]2O)[C@H]2O[C@@H](n3ccc(=O)[nH]c3=O)[C@H](O)[C@@H]2O)no1.O=C(O)C(F)(F)F [Compound 12i]
solubility in 5%DMSO-water (culture media) [8]: insoluble
IC50 against MraYAA [1, 9]: no activity; also recorded: N.I. ^e
CMI [2]: > 50 µg/mL
CMI [3]: > 50 µg/mL
CMI [4]: > 50 µg/mL
CMI [5]: > 50 µg/mL
CMI [6]: > 50 µg/mL
CMI [7]: > 50 µg/mL

CN[C@H](CC(C)C)C(=O)N[C@H]1C(=O)N[C@@H](CC(N)=O)C(=O)N[C@H]2C(=O)N[C@H]3C(=O)N[C@H](C(=O)N[C@H](C(=O)O)c4cc(O)cc(O)c4-c4cc3ccc4O)[C@H](O)c3ccc(c(Cl)c3)Oc3cc2cc(c3O[C@@H]2O[C@H](CO)[C@@H](O)[C@H](O)[C@H]2O[C@H]2C[C@](C)(N)[C@H](O)[C@H](C)O2)Oc2ccc(cc2Cl)[C@H]1O [Vancomycin, reference compound]
CMI [2]: 0.5 µg/mL
CMI [3]: 1 µg/mL
CMI [6]: 1 µg/mL

CCCCCCCCCCc1nc(C[C@H](O[C@@H]2O[C@H](CN)[C@@H](O)[C@H]2O)[C@H]2O[C@@H](n3ccc(=O)[nH]c3=O)[C@H](O)[C@@H]2O)no1.O=C(O)C(F)(F)F [Compound 12a]
IC50 [1, 9]: 0.8 ± 0.1 µM
CMI [2]: > 50 µg/mL
CMI [3]: > 50 µg/mL
CMI [4]: > 50 µg/mL
CMI [5]: > 50 µg/mL
CMI [6]: > 50 µg/mL
CMI [7]: > 50 µg/mL

CCCCCCCC/C=C/CCCCCCCc1nc(C[C@H](O[C@@H]2O[C@H](CN)[C@@H](O)[C@H]2O)[C@H]2O[C@@H](n3ccc(=O)[nH]c3=O)[C@H](O)[C@@H]2O)no1.O=C(O)C(F)(F)F [Compound 12f]
solubility in 5%DMSO-water (culture media) [8]: insoluble
IC50 [1, 9]: 17.3 ± 0.3 µM
CMI [2]: 50 µg/mL
CMI [3]: 50 µg/mL
CMI [4]: > 50 µg/mL
CMI [5]: > 50 µg/mL
CMI [6]: 50 µg/mL
CMI [7]: > 50 µg/mL

NC[C@H]1O[C@@H](O[C@@H](Cc2noc(-c3ccc(Oc4ccccc4)cc3)n2)[C@H]2O[C@@H](n3ccc(=O)[nH]c3=O)[C@H](O)[C@@H]2O)[C@H](O)[C@@H]1O.O=C(O)C(F)(F)F [Compound 12e]
IC50 [1, 9]: 3.2 ± 0.2 µM
CMI [2]: > 50 µg/mL
CMI [3]: > 50 µg/mL
CMI [4]: > 50 µg/mL
CMI [5]: > 50 µg/mL
CMI [6]: > 50 µg/mL
CMI [7]: > 50 µg/mL
